Reference: patent publication US4666897A, “Inhibition of mammalian collagenolytic enzymes by tetracyclines” (Research Foundation of State University, priority 1983, dated 1987)

Legend:
[1] = target: T1, rat PMNL collagenolytic activity (PMNL collagenase) (Rattus norvegicus, UniProt O88766); assay: Rat PMNL collagenolytic activity in vitro (14C-collagen gel lysis); assay type: biochemical
T1 construct: An extract of PMNLs was prepared; from tissue; host or cells: extract of peritoneal exudate polymorphonuclear leucocytes of non-diabetic rats, elicited with glycogen
Protocol: To test the effect of physiologic levels of minocycline (the concentration in human serum, during a therapeutic regimen, is approximately 2 ug/ml; that in the gingival crevicular fluid is 4-5 times greater; Ciancio, et. al., 1980, J. Periodontol., 51, 531-534) on mammalian collagenolytic activity in vitro, peritonealexudate polymorphomuclear leucocytes (PMNLs) were collected from 15 mole (non-diabetic) rats 4 hours after I.P. injection of 0.15% glycogen. An extract of PMNLs was prepared, 250 μl aliquots of this extract were incubated with ^14 C-glycine labeled collagen fibrils for 14 hours at 35° C. (in the presence or absence of minocycline, or EDTA, or additional CaCl2), and collagenolytic activity was measured as described by Nicoll, et al., (Experientia., 37, 315-317).
The techniques used to measure the collagenolytic enzyme activity of gingival tissue in culture, and in polymorphonuclear leucocytes (PMNLs), are those described by Golub, et. al., (J. Dent. Res., 57, 520-525 (197)8) and Nicoll, et. al., (Experimentia, 37, 315-317, (1981)) with minor modifications.

[2] = test system: GCF collagenase and gingival disease in diabetic twins; assay: Human gingival crevicular fluid (GCF) study, diabetic twin brothers; assay type: in vivo; settings: 7 days of treatment
Protocol: In a separate study involving humans, gingival crevicular fluid (GCF) samples were collected on filter paper strips inserted into 8 interproximal pockets of selected teeth in the maxillary arch of two twin brothers with juvenile-onset (insulin-dependent) diabetes mellitus. Fluid volume was immediately determined on a modified Periotron (Model 6000, Harco Electronics Ltd., Winnipeg, Canada); then incubated with 10 μl (^3 H-methyl) collagen (20,675 DPM) and 70 μl buffer (50 mM Tris-HCl, pH 7.8, containing 0.2 M sodium chloride and 5 mM calcium chloride). The GCF samples (or reagent blanks or trypsin controls) were incubated at 27° C. for 18 hours with gentle shaking. The reaction was stopped and undigested collagen precipitated by adding 10 μl 0.1 M phenanthroline in dioxane/water (1:1, v/v), 10 μl of nonradioactive methylated carrier collagen (2 mg/ml) in 50 mM Tris-HCl buffer containing 1M NaCl (pH 7.0), and 100 μl dioxane. After mixing, the radiolabeled collagen degradation products were collected by filtration and counted in a liquid scintillation spectrometer (Golub, et. al., 1976, J. Dent. Res., 55, 1049). Using this technique, the reaction blank (no enzyme or GCF added) released about 10% of the total substrate counts; 2-20 ng bacterial collagenase produced a linear increase in the release of radioactive counts from the ^3 H-collagen substrate (the 20 ng level of enzyme degraded 60% of the collagen substrate); and 50 ng trypsin released less than 1% of the counts above blank values. GCF collagenase activity was expressed as units of equivalent activity of vertebrate collagenase (obtained from New England Nuclear, Cat. No. NEK-016); 1 unit was operationally defined as the amount of enzyme that degrades 1 μg of collagen per hour at 27° C.
Four additional GCF samples were collected from other maxillary pockets of the same diabetic twin brothers on filter paper strips, their volume determined (see above), and collagenolytic activity assessed using the same procedure described above but with a different substrate (10 μl of (^3 H-propionate) collagen, NET-660, New England Nuclear Corp., Boston, Mass., 302,000 DPM).
Half of the 12 GCF samples per subject were activated by pretreatment with 1.04 uM trypsin followed by the addition of a 5-fold molar excess of soybean trypsin inhibitor. Samples were selected to be treated or not treated with trypsin by matching them for Gingival Index (Loe and Silness, Acta. Odont. Scand., 21, 533-551 (1967)), GCF flow, and for pocket depth; the clincal parameters (GI, PD) were measured immediately after GCF collection. All measurements were carried out immediately before antibiotic coverage and after 7 days of treatment with either pencillin G (lg. per day; patient three) or the tetracycline minocycline (200 mg/day; patient one).

[3] = penicillin G 1 g per day (P. D.) or minocycline 200 mg/day (K. D.)

T1 sequence (O88766 102-466): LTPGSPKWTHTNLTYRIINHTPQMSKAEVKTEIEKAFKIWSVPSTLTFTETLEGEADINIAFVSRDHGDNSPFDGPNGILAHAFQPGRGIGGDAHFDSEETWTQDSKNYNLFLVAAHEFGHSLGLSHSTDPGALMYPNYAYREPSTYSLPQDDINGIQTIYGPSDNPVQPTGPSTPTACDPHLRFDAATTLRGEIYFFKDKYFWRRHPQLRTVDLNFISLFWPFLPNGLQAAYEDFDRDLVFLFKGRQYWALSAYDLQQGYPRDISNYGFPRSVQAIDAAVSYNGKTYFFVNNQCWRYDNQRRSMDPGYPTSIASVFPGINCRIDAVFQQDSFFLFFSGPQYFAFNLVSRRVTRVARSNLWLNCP

- effect on PMNL collagenolytic (collagenase) activity, in words ([1]; Table 1): almost complete inhibition
- Collagenolytic Activity: % ^14 C-collagen gel lysed ([1]; Table 1, PMNL extract + 5 μg/ml, control extract 85.5): 12.4%
- Collagenolytic Activity: % ^14 C-collagen gel lysed ([1]; Table 1, PMNL extract + 20 μg/ml + CaCl2 10 mM): 38.5%
- Collagenolytic Activity: % ^14 C-collagen gel lysed ([1]; Table 1, PMNL extract + 20 μg/ml + CaCl2 50 mM): 82.1%
- Collagenolytic Activity: % ^14 C-collagen gel lysed ([1]; Table 1, PMNL extract + 20 μg/ml, control extract 85.5): 8.3%
- Collagenolytic Activity: % ^14 C-collagen gel lyzed ([1]; Table 2, PMNL extract (30 × 10^6 PMNLs per ml) + 20 ug/ml, control extract 39.0): 4.0%
- Gram-positive and Gram-negative organisms in the pockets [2, 3]: marked reduction in Gram-negative
Structure (SMILES): CN(C)c1ccc(O)c2c1C[C@H]1C[C@H]3[C@H](N(C)C)C(O)=C(C(N)=O)C(=O)[C@@]3(O)C(O)=C1C2=O [minocycline, Minocycline]
- GCF flow [2, 3]: significant reductions
- active GCF collagenase [2, 3]: significant reductions
- pocket depth [2, 3]: no decrease
- total GCF collagenase (after trypsin pretreatment) [2, 3]: significant reductions
- Gingival Index (G. I.) ([2]; penicillin G 1 g per day (patient three) or minocycline 200 mg/day (patient one)): significant reductions
